Source: ChEMBL document CHEMBL5209582, “Membrane potential based assay for SLC6A6 using HEK-293 SLC6A6 OE cells” (2022)

Biological target: T1, Sodium- and chloride-dependent taurine transporter (Homo sapiens, UniProt P31641)
T1 sequence (P31641 whole entry): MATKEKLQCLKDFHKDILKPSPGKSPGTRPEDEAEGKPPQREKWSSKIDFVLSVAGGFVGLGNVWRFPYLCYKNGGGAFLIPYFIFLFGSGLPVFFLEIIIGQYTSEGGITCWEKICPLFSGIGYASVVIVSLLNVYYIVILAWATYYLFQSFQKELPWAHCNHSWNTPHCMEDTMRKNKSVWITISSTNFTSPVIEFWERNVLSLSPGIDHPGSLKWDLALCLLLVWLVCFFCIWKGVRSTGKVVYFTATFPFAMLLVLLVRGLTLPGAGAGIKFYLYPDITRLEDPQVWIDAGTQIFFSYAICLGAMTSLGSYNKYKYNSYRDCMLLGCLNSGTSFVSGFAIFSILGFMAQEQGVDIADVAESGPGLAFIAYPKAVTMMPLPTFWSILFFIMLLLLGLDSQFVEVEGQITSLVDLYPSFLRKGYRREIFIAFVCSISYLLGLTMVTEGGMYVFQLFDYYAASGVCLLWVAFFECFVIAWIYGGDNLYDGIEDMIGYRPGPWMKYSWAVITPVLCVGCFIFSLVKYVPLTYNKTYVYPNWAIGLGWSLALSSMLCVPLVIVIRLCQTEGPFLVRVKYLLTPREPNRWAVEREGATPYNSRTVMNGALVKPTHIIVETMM
Test: Substrate uptake by the Taurine Transporter (TauT, SLC6A6) as assessed by the fluorescent FLIPR membrane potential dye in HEK-293 JumpIN-SLC6A6 cells (PubChem AID: 1794824)
Format: functional, cell-based, HEK293

EC50 [µM] | SMILES
354 | NCCCC(=O)O [GAMMA-AMINOBUTYRIC ACID]
10 | NCCS(=O)(=O)O [TAURINE]
